Laboratory results: PubChem BioAssay (NCI)
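Cells were grown in 96-well plates and exposed to each compound for 48 hours at five concentrations; endpoints were interpolated linearly between bracketing concentrations, or set to the highest concentration if not reached. TGI is the concentration that stops growth completely.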

Key:
Test in all cases: NCI tumour cell line growth inhibition, 48 h
NCI-H460 lung = system: NCI-H460 lung
OVCAR-4 ovarian = system: OVCAR-4 ovarian
MCF7 breast = system: MCF7 breast
A498 renal = system: A498 renal
NCI-H226 lung = system: NCI-H226 lung
COLO 205 colon = system: COLO 205 colon
HL-60(TB) leukemia = system: HL-60(TB) leukemia
KM12 colon = system: KM12 colon
SNB-19 CNS = system: SNB-19 CNS
RPMI-8226 leukemia = system: RPMI-8226 leukemia
EKVX NSCLC = system: EKVX NSCLC
MOLT-4 leukemia = system: MOLT-4 leukemia
SR leukemia = system: SR leukemia
LOX IMVI melanoma = system: LOX IMVI melanoma
HOP-62 NSCLC = system: HOP-62 NSCLC
CCRF-CEM leukemia = system: CCRF-CEM leukemia
U251 CNS = system: U251 CNS
SF-539 CNS = system: SF-539 CNS
SK-MEL-5 melanoma = system: SK-MEL-5 melanoma
SW-620 colon = system: SW-620 colon
HOP-92 NSCLC = system: HOP-92 NSCLC
DU-145 prostate = system: DU-145 prostate
HCT-15 colon = system: HCT-15 colon
SK-MEL-28 melanoma = system: SK-MEL-28 melanoma
OVCAR-8 ovarian = system: OVCAR-8 ovarian
CAKI-1 renal = system: CAKI-1 renal
786-0 renal = system: 786-0 renal
NCI-H23 lung = system: NCI-H23 lung
MDA-MB-231 breast = system: MDA-MB-231 breast
UACC-257 melanoma = system: UACC-257 melanoma
IGROV1 ovarian = system: IGROV1 ovarian
BT-549 breast = system: BT-549 breast
SK-OV-3 ovarian = system: SK-OV-3 ovarian
M14 melanoma = system: M14 melanoma
RXF 393 renal = system: RXF 393 renal
MDA-MB-435 = system: MDA-MB-435
SNB-75 CNS = system: SNB-75 CNS
UACC-62 melanoma = system: UACC-62 melanoma
ACHN renal = system: ACHN renal
NCI/ADR-RES ovarian = system: NCI/ADR-RES ovarian
HS 578T breast = system: HS 578T breast
HCT-116 colon = system: HCT-116 colon
SK-MEL-2 melanoma = system: SK-MEL-2 melanoma
SF-268 CNS = system: SF-268 CNS
PC-3 prostate = system: PC-3 prostate
UO-31 renal = system: UO-31 renal
HT29 colon = system: HT29 colon
K-562 leukemia = system: K-562 leukemia
HCC-2998 colon = system: HCC-2998 colon
SF-295 CNS = system: SF-295 CNS
T-47D breast = system: T-47D breast
TK-10 renal = system: TK-10 renal

Structure (SMILES): COc1ccccc1NC(=S)N/N=C/c1c(C)n(C)n(-c2ccccc2)c1=O
- TGI (NCI-H460 lung): > 100 µM
- TGI (OVCAR-4 ovarian): > 100 µM
- TGI (MCF7 breast): > 100 µM
- TGI (A498 renal): > 100 µM
- TGI (NCI-H226 lung): > 100 µM
- TGI (COLO 205 colon): > 100 µM
- TGI (HL-60(TB) leukemia): > 100 µM
- TGI (KM12 colon): > 100 µM
- TGI (SNB-19 CNS): > 100 µM
- TGI (RPMI-8226 leukemia): > 100 µM
- TGI (EKVX NSCLC): > 100 µM
- TGI (MOLT-4 leukemia): > 100 µM
- TGI (SR leukemia): > 100 µM
- TGI (LOX IMVI melanoma): > 100 µM
- TGI (HOP-62 NSCLC): > 100 µM
- TGI (CCRF-CEM leukemia): > 100 µM
- TGI (U251 CNS): > 100 µM
- TGI (SF-539 CNS): > 100 µM
- TGI (SK-MEL-5 melanoma): > 100 µM
- TGI (SW-620 colon): > 100 µM
- TGI (HOP-92 NSCLC): > 100 µM
- TGI (DU-145 prostate): > 100 µM
- TGI (HCT-15 colon): > 100 µM
- TGI (SK-MEL-28 melanoma): > 100 µM
- TGI (OVCAR-8 ovarian): > 100 µM
- TGI (CAKI-1 renal): > 100 µM
- TGI (786-0 renal): > 100 µM
- TGI (NCI-H23 lung): > 100 µM
- TGI (MDA-MB-231 breast): > 100 µM
- TGI (UACC-257 melanoma): > 100 µM
- TGI (IGROV1 ovarian): > 100 µM
- TGI (BT-549 breast): > 100 µM
- TGI (SK-OV-3 ovarian): > 100 µM
- TGI (M14 melanoma): > 100 µM
- TGI (RXF 393 renal): > 100 µM
- TGI (MDA-MB-435): > 100 µM
- TGI (SNB-75 CNS): > 100 µM
- TGI (UACC-62 melanoma): > 100 µM
- TGI (ACHN renal): > 100 µM
- TGI (NCI/ADR-RES ovarian): 63.9 µM
- TGI (HS 578T breast): > 100 µM
- TGI (HCT-116 colon): > 100 µM
- TGI (SK-MEL-2 melanoma): > 100 µM
- TGI (SF-268 CNS): > 100 µM
- TGI (PC-3 prostate): > 100 µM
- TGI (UO-31 renal): > 100 µM
- TGI (HT29 colon): > 100 µM
- TGI (K-562 leukemia): > 100 µM
- TGI (HCC-2998 colon): > 100 µM
- TGI (SF-295 CNS): > 100 µM
- TGI (T-47D breast): > 100 µM
- TGI (TK-10 renal): > 100 µM
